Reference: PMC3001897, “High-Throughput Chemical Screen Identifies a Novel Potent Modulator of Cellular Circadian Rhythms and Reveals CKIα as a Clock Regulatory Kinase” (PLoS Biology, 2010)

Key:
adult tail fibroblasts = assay: Circadian period in adult tail fibroblasts from mPer2Luc knockin mice; type: cell-based, mouse
Experimental: (§1) Luminescence rhythms of adult tail fibroblasts and embryonic fibroblasts from mPer2^Luc knockin mice were analyzed similarly to U2OS cells, except that 1,800 cells were plated per well. Because of the low luminescence intensity of the fibroblasts, the higher sensitivity ViewLux imager was used for rhythm recording.

embryonic fibroblasts = assay: Circadian period in embryonic fibroblasts from CKIδ deficient mPer2Luc knockin mice; type: cell-based, mouse
Experimental: as §1

CDK7 = biological target: T1, CDK7 (Homo sapiens, UniProt P50613); assay: In vitro kinase assay, CDK7; type: biochemical; conditions: ATP 5 µM; from Figure 2E
T1 construct: purchased Millipore 14-476
Experimental: (§2) The CKIδ, CKIα, CDK7, and ERK2 kinase assays were performed on 384-well plates (10 µl volume). The reaction mixture was as follows: for CKIδ, 2 ng/µl CKIδ (Millipore, 14-520), 50 µM peptide substrate RKKKAEpSVASLTSQCSYSS corresponding to human PER2 Lys659-Ser674 [47], and CKI buffer (40 mM Tris, 10 mM MgCl2, 0.5 mM DTT, 0.1 mg/ml BSA, pH 7.5); for CKIα, 1 ng/µl CKIα (Invitrogen, PV3850), 50 µM CKI peptide substrate (Anaspec, 60547-1), and CKI buffer; for CDK7, 5 ng/µl CDK7 (Millipore, 14-476), 100 µM Cdk7/9 peptide substrate (Millipore, 12-526), and CKI buffer; for ERK2, 1.5 ng/µl ERK2 (Millipore, 14-550), 0.8 µg/µl MBP (Millipore, 13-104), and ERK buffer (50 mM Tris, 10 mM MgCl2, 0.5 mM DTT, 1 mM EGTA, pH 7.5). Five hundred nl of compound was added to the mixture (final 5% DMSO), and the reaction was started by adding ATP (final 5 µM). After incubation at 30°C for 3h, 10 µl of Kinase-Glo Luminescent Kinase Assay reagent (Promega) was added, and the luminescence was detected to determine remaining ATP amount. […] IC50 value was obtained by using Prism software (GraphPad Software).

CKIδ [1] = biological target: T2, CKIδ (Homo sapiens, UniProt P48730); assay: PER2-LUC degradation assay, CKIδ; type: cell-based; conditions: HEK293T, 0 to 20 µM, 24 h
CKIδ [2] = biological target: T2, CKIδ; assay: Cell-based PER1 degradation assay (PER1-LUC), CKIδ
Experimental: (§3) HEK293T cells (6.0×10^4 cells) were reverse transfected on 96-well white solid-bottom plates by Lipofectamine 2000 with 40 ng each of expression vectors for C-terminally luciferase-fused PER1 (in p3XFLAG-CMV-14) and N-terminally HA-tagged kinase (in p3XFLAG-CMV-14). For luciferase (in p3XFLAG-CMV-14), 2 ng of expression vector with 38 ng of empty vector was used because of its efficient expression. After 48 h, the medium was supplemented with luciferin (final 1 mM) and HEPES-NaOH (pH 7.2; final 10 mM). After 1 h, cycloheximide (final 20 µg/ml) was added to the medium, and the plate was covered with optically clear film. The luminescence was recorded every 10 min by using the Tecan luminometer. Half-life was obtained by using Prism software (GraphPad Software).

ERK2 = biological target: T3, ERK2 (Homo sapiens, UniProt P28482); assay: In vitro kinase assay, ERK2; type: biochemical
T3 construct: purchased Millipore 14-550
Experimental: as §2

[3] = tested on: CKIα- and CKIδ-accelerated degradation of PER1; assay: Flag-tagged PER1 degradation by Western blot in HEK293T cells; type: cell-based; conditions: 24 h
[4] = tested on: CKIα- and CKIδ-dependent mobility-shift of PER1; assay: PER1 electrophoretic mobility-shift (phosphorylation) in HEK293T cells; type: cell-based; conditions: 10 or 20 µM, 24 h
Experimental: HEK293T cells (1.25×10^6 cells) were reverse transfected on 6-well plates by Lipofectamine 2000 with 1 µg each of expression vectors for C-terminally 3XFlag-tagged clock protein (in p3XFLAG-CMV-14, Sigma) and N-terminally HA-tagged kinase (in p3XFLAG-CMV-14). For ERK2, 0.05 µg of expression vector with 0.95 µg of empty vector was used because of its efficient expression. After 24 h, the cells were collected with ice-cold PBS and suspended in 100 µl of incubation buffer [50 mM Tris, 50 mM NaCl, 2 mM EDTA, 10% glycerol, 1 mM DTT, Complete Protease Inhibitor Cocktail (Roche), Phosphatase Inhibitor Cocktail 1 and 2 (Sigma), pH 8.0]. The mixture was supplemented with NP-40 (final 1%) and incubated on ice for 15 min, followed by centrifugation (16,000×g) at 4°C for 10 min. […] The bound proteins were eluted with SDS sample buffer, separated by SDS-PAGE (4%–12% gradient gel), and analyzed by Western blotting with anti-Flag antibody (Sigma, F1804) or anti-HA antibody conjugated with HRP (Roche, 12013819001). For the analysis of PER1 electrophoretic mobility-shift, the cell extracts were separated by SDS-PAGE (3%–8% gradient gel, Invitrogen) and analyzed by Western blotting with anti-Flag antibody or anti-α-tubulin antibody (Santa Cruz Biotechnology, sc-32293). Protein concentration of each sample was measured by the Lowry method using DC protein assay (BioRad).

CKIα [5] = biological target: T4, CKIα (Homo sapiens, UniProt P48729); assay: Cell-based PER1 degradation assay (PER1-LUC), CKIα
Experimental: as §3

CKIα [6] = biological target: T4, CKIα; assay: In vitro kinase assay, CKIα; type: biochemical; design: purchased Invitrogen PV3850; conditions: ATP 5 µM; from Figure 2E
Experimental: as §2

Bmal1-dLuc U2OS cells = assay: Time-course assay of endogenous PER1 abundance with parallel luminescence rhythms; type: cell-based, human; conditions: for Period of Bmal1-dLuc luminescence rhythm: control 0 µM 26 h; for Time of second trough of Bmal1-dLuc luminescence rhythm: control 0 µM 34 h; for Time of second peak of PER1 protein rhythm: control 0 µM 40 h
Experimental: Bmal1-dLuc U2OS cells were plated onto 6-well-plates (2.0×10^5 cells/well). After 2 d, the medium was replaced with 2 ml explant medium containing 0, 3, or 9 µM longdaysin. The plate was covered with film and kept at 36°C. At indicated time points, the cells were collected with ice-cold PBS and stored at −80°C. Then the cell pellets were homogenized in SDS sample buffer and analyzed by Western blotting with anti-PER1 antibody (Cosmo Bio, KAL-KI044) or anti-α-tubulin antibody. In parallel, luminescence rhythms of the cells plated on 35 mm dishes were recorded with LumiCycle luminometer at 36°C.

[7] = HEK293T cells, 24 h treatment, from Figure 4E

T4 sequence (P48729 whole entry): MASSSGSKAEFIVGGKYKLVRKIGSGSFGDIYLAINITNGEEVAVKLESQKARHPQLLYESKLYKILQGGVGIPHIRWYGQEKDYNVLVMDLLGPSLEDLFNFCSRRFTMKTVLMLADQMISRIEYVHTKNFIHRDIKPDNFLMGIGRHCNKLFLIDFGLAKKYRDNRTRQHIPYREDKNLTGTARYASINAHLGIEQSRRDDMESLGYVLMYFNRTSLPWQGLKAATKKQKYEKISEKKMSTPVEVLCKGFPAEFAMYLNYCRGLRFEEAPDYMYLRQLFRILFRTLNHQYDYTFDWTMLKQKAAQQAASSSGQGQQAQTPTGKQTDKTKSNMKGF
T2 sequence (P48730 whole entry, species assumed): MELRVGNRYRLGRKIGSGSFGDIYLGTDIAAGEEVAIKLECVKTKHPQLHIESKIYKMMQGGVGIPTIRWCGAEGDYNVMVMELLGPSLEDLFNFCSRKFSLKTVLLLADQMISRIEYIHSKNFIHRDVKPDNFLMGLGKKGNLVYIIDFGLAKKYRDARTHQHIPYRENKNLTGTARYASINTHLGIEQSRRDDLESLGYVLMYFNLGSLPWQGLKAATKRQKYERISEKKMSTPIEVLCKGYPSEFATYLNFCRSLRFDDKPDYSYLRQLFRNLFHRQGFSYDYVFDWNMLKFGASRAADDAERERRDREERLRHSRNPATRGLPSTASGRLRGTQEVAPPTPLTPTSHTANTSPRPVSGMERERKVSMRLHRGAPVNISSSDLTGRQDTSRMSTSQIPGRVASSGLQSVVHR
T3 sequence (P28482 whole entry, species assumed): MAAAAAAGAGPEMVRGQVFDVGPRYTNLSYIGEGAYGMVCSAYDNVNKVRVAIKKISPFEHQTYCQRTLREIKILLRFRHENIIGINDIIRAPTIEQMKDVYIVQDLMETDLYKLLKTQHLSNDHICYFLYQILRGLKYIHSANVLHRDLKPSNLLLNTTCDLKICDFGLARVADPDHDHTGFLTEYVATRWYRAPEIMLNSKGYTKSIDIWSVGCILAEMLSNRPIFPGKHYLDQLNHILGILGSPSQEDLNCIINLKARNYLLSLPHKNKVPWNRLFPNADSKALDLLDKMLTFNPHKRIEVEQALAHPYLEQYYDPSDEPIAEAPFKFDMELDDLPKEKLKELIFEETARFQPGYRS
T1 sequence (P50613 whole entry): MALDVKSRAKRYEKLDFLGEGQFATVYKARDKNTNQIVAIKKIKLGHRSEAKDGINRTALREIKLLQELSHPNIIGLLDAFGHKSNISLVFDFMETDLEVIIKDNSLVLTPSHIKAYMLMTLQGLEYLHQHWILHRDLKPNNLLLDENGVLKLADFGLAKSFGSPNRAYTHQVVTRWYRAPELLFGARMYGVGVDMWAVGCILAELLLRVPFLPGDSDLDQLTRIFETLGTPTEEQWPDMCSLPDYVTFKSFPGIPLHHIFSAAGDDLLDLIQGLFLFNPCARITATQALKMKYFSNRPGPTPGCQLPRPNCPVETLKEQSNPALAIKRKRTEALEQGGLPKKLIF
T1 sequence (P51946 whole entry partner): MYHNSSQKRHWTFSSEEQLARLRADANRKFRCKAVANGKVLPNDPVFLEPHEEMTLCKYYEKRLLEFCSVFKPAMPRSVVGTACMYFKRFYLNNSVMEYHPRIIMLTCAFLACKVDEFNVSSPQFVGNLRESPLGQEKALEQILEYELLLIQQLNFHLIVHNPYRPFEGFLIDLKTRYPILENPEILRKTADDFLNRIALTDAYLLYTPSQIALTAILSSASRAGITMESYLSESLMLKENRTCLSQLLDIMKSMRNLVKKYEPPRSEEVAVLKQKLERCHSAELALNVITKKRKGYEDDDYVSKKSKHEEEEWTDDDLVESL
T1 sequence (P51948 whole entry partner): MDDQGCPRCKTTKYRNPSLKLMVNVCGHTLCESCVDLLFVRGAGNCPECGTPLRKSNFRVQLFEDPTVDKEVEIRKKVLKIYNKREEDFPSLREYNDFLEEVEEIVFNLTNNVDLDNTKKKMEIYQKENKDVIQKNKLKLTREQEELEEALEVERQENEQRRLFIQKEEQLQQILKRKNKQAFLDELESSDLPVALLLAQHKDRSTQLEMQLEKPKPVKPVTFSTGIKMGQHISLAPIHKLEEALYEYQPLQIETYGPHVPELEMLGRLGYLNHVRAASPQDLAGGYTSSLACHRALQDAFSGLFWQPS

SMILES: CC(C)n1cnc2c(NCc3cccc(C(F)(F)F)c3)ncnc21 [Longdaysin, 9-isopropyl-N-(3-(trifluoromethyl)benzyl)-9H-purin-6-amine]
- Effect on circadian period (adult tail fibroblasts): dose-dependent period lengthening
- Effect on circadian period (embryonic fibroblasts; CKIδ deficient (CKIδΔ2/Δ2) cells): lengthened the period in a dose-dependent manner
- Effect on circadian period (embryonic fibroblasts; wild type (CKIδ+/+) cells): lengthened the period in a dose-dependent manner
- IC50 (CDK7): 29 µM
- Effect on CKIδ-mediated PER2-LUC degradation (CKIδ [1]): inhibited the CKIδ-mediated PER2-LUC degradation in a dose-dependent manner
- EC50 (CKIδ [2]; [7]): 9.7 µM
- Effect on CKIδ-dependent degradation of PER1 (CKIδ [2]; HEK293T, 0 to 20 µM, 24 h): inhibited by longdaysin treatment in a dose-dependent manner
- IC50 (ERK2; ATP 5 µM, from Figure 2E): 52 µM
- Inhibition of ERK2 in vitro (ERK2; range of 3 to 24 µM): considerably inhibited ERK2 in vitro
- Inhibition of CKIα and CKIδ effects on PER1 degradation ([3]; 10 µM): partially inhibited
- Inhibition of CKIα and CKIδ effects on PER1 degradation ([3]; 20 µM): strongly inhibited
- Effect on CKIα- and CKIδ-dependent mobility-shift of PER1 [4]: reduced the CKIα- and CKIδ-dependent mobility-shift of PER1
- EC50 (CKIα [5]; [7]): 9.2 µM
- Effect on CKIα-dependent degradation of PER1 (CKIα [5]; HEK293T, 0 to 20 µM, 24 h): inhibited by longdaysin treatment in a dose-dependent manner
- IC50 (CKIα [6]): 5.6 µM
- Period of Bmal1-dLuc luminescence rhythm (Bmal1-dLuc U2OS cells; 3 µM): 32 h
- Time of second trough of Bmal1-dLuc luminescence rhythm (Bmal1-dLuc U2OS cells; 3 µM): 38 h
- Time of second peak of PER1 protein rhythm (Bmal1-dLuc U2OS cells; 3 µM): 40 to 46 h
- Period of Bmal1-dLuc luminescence rhythm (Bmal1-dLuc U2OS cells; 9 µM): 38 h
- Time of second trough of Bmal1-dLuc luminescence rhythm (Bmal1-dLuc U2OS cells; 9 µM): 46 h
- Time of second peak of PER1 protein rhythm (Bmal1-dLuc U2OS cells; 9 µM): 52 h
- Overall protein amount of endogenous PER1 (Bmal1-dLuc U2OS cells; 3 or 9 µM versus 0 µM control): strongly up-regulated
- PER1 mRNA level (Bmal1-dLuc U2OS cells; 3 or 9 µM, RT-qPCR): without affecting its mRNA level
